Measured values published in article PMC10498496, “Design and Synthesis of Poly(2,2′-Bipyridyl) Ligands for Induction of Cell Death in Cancer Cells: Control of Anticancer Activity by Complexation/Decomplexation with Biorelevant Metal Cations” (Inorganic Chemistry, 2023).
Read-outs that look alike come from different tables or passages of the source. Marks after values point to notes of the source that are not given here.

Key:
Jurkat cells = assay: MTT assay of Jurkat cells, effect of metal ions and incubation time on cytotoxicity of ligands; format: cell-based, human; details: Homo sapiens, Jurkat, no metal
Method: Next, we examined the effect of complexation of 1, 2, BAPTA, and BAPTA-AM with metal ions such as Cu(NO3)2, Zn(NO3)2, FeSO4, Co(NO3)2, and NiSO4 on their cytotoxicity against Jurkat cells. Mixture of ligands and metal ions were incubated for 1 h at 37 °C, and added to Jurkat cells for incubation for 12, 24, and 48 h at [ligand] = 0.78–25 μM and [M^2+] = 1.71–37.5 μM ([ligand]: [M^2+] = 1:1.5). After that, MTT assays were carried out, as shown in Figure S3 of the Supporting Information.
IMR-90 cells in DMEM medium with 10% FBS (1.5 × 10^5 cells/mL) were seeded in to 96 well plates and incubated for 24 h at 37 °C, MTT assays with poly(bpy) ligands and their metal complexes (0–100 μM), cisplatin (0–100 μM), and actinomycin D (0–10 μM) were performed following the same procedure described above. These experiments were carried out at least three times. • (b) MTT assay in the presence of a caspase inhibitor. Jurkat cells were pre-treated with Z-VAD-fmk (15 μM) for 3 h, a general caspases inhibitor, followed by the treatment with 1 (1 μM), BABTA-AM (12.5 μM) and cisplatin (50 μM), respectively, for 24 h, and then MTT assay was carried out as described above. • (c) For evaluation of the effect of metal ions on the cytotoxicity of 1, 2, BAPTA, and BAPTA-AM, these ligands were incubated with metal ions such as Cu(NO3)2, Zn(NO3)2, FeSO4, Co(NO3)2, and NiSO4 for 1 h, respectively, and added to Jurkat cells. The whole mixtures were incubated for 12, 24, and 48 h at [ligand] = 0.78–25 μM and at [M^2+] = 1.71–37.5 μM ([ligand]/[M^2+] = 1:1.5). The MTT assays were conducted as described above.

[1] = UV/vis absorption titration, apparent stability constant with Zn^2+; format: binding; details: 37 °C, 1:1 complex
Method: (§1) All reagents and solvents were purchased at the highest commercial quality and were used without further purification. Anhydrous DMF was obtained by distillation from calcium hydride. All aqueous solutions were prepared using deionized and distilled water. Melting points were measured using a Yanaco MP-J3 Micro Melting Point apparatus and are uncorrected. UV/vis absorption spectra were recorded on a JASCO V-630 spectrophotometer at 37 °C. The UV/vis absorption titrations of 1 with metal ions were carried out by addition of 10 mM solutions of Zn(NO3)2, NiSO4, Co(NO3)2, Fe(NO3)2, and Al(NO3)3 in H2O and 10 mM solutions of Cu(NO3)2 in DMSO. The apparent stability constants of metal–ligand complexes (Ks) were calculated by using the Bind Works 1.0 software provided by CSC (Calorimetry Science Corp.), an interactive PC software for the analysis of Binding Isotherms on Isothermal Titration Calorimeters (ITCs), to which the change in absorption values obtained by the UV/vis absorption titrations are input.[62] IR spectra were measured with a PerkinElmer FT-IR spectrophotometer (Spectrum 100) at room temperature. ^1H (300 and 400 MHz) NMR spectra were recorded on a JEOL Always 300 spectrometer and a JEOL Always 400 spectrometer, respectively. Luminescence imaging studies were performed using a fluorescent microscope (Biorevo, BZ-9000, Keyence). […]

[2] = UV/vis absorption titration, apparent stability constant with Ni^2+; format: binding; details: 37 °C, 1:1 complex
Method: as §1

[3] = UV/vis absorption titration, apparent stability constant with Co^2+; format: binding; details: ligand 30 μM, DMSO/30 mM HEPES pH 7.4 (7/3), 37 °C, approximate, assuming 1:1 complexation (1:2 complex)
Description: (§2) Although simple comparison of the stability of metal complexes is difficult due to the different units for 1:1 complexation (M^–1) and 1:2 complexation (M^–2), it is likely that the thermodynamic stability of Co^2+-(1)2 and Fe^2+-(1)2 complexes are similar to that of Zn^2+-1, Ni^2+-1, and Cu^2+-1 complexes.[40]
as §1, with “The UV/vis absorption titrations of 1 with metal ions were carried out by addition of 10 mM solutions of Zn(NO3)2, NiSO4, Co(NO3)2, Fe(NO3)2, and Al(NO3)3 in H2O and 10 mM solutions of Cu(NO3)2 in DMSO.” left out, “respectively.” for “respectively. Luminescence imaging studies were performed using a fluorescent microscope (Biorevo, BZ-9000, Keyence).”

[4] = UV/vis absorption titration, apparent stability constant with Cu^2+; format: binding; details: ligand 30 μM, DMSO/30 mM HEPES pH 7.4, I = 0.1 (NaNO3) (7/3), 37 °C, 1:1 complex
Method: as §1

[5] = UV/vis absorption titration, apparent stability constant with Fe^2+; format: binding; details: ligand 30 μM, DMSO/30 mM HEPES pH 7.4 (7/3), 37 °C, approximate, assuming 1:1 complexation (1:2 complex)
Description: as §2
as §1, with “The UV/vis absorption titrations of 1 with metal ions were carried out by addition of 10 mM solutions of Zn(NO3)2, NiSO4, Co(NO3)2, Fe(NO3)2, and Al(NO3)3 in H2O and 10 mM solutions of Cu(NO3)2 in DMSO.” left out, “respectively.” for “respectively. Luminescence imaging studies were performed using a fluorescent microscope (Biorevo, BZ-9000, Keyence).”

[6] = UV/vis absorption titration, apparent stability constant with Al^3+; format: binding; details: ligand 30 μM, DMSO/30 mM HEPES pH 7.4, I = 0.1 (NaNO3) (7/3), 37 °C
Description: as §2
as §1, with “The UV/vis absorption titrations of 1 with metal ions were carried out by addition of 10 mM solutions of Zn(NO3)2, NiSO4, Co(NO3)2, Fe(NO3)2, and Al(NO3)3 in H2O and 10 mM solutions of Cu(NO3)2 in DMSO.” left out, “respectively.” for “respectively. Luminescence imaging studies were performed using a fluorescent microscope (Biorevo, BZ-9000, Keyence).”

[7] = ligand 30 μM, DMSO/30 mM HEPES pH 7.4, I = 0.1 (NaNO3) (7/3)

- Kd ([1]; DMSO/30 mM HEPES pH 7.4 (7/3), read-out: dissociation constant Kd (= 1/Ks) of Zn^2+ complex): 280 ± 10 nM
- apparent stability constant log Ks with Zn(NO3)2 [1, 7]: 6.56 ± 0.02 (1:1 complex)
- Kd ([2]; DMSO/30 mM HEPES pH 7.4 (7/3), read-out: dissociation constant Kd (= 1/Ks) of Ni^2+ complex): 610 ± 20 nM
- apparent stability constant log Ks with NiSO4 [2, 7]: 6.21 ± 0.01 (1:1 complex)
- apparent stability constant log Ks with Co(NO3)2 [3]: >6 ^b (1:2 complex)
- apparent stability constant log Ks with Cu(NO3)2 [4]: 7.29 ± 0.02 (1:1 complex)
- apparent stability constant log Ks with Fe(NO3)2 [5]: >5.5 ^b (1:2 complex)
- apparent stability constant log Ks with Al(NO3)3 [6]: <1
Structure (SMILES): c1ccc(-c2ccc(OCc3cc(COc4ccc(-c5ccccn5)nc4)cc(COc4ccc(-c5ccccn5)nc4)c3)cn2)nc1 [compound 1, 1,3,5-Tris(([2,2′-Bipyridin]-5-yloxy)methyl)benzene]
- EC50 (Jurkat cells; incubation 12 h (Figure 9), read-out: EC50 against Jurkat cells, metal-free ligand): ~9000 nM
- EC50 (Jurkat cells; incubation 24 h (Figure 9b), read-out: EC50 against Jurkat cells, ligand alone): 137 nM
- EC50 (Jurkat cells; incubation 48 h (Figure 9, S4), read-out: EC50 against Jurkat cells, metal-free ligand): ~60 nM
